Test results taken from patent EP3884941A1, “INFLAMMASOME INHIBITORS AND USE THEREOF” (CENTRO DE INVESTIGACION PRINCIPE FELIPE, priority 2020, dated 2021).

Key:
human NLRP1 inflammasome = experiment: NLRP1 inflammasome activation, LPS plus MDP, THP-1 cells; assay type: cell-based
Method: The materials and methods employed in these experiments are now described. The molecules were evaluated in the THP-1, or PMA-differentiated THP-1 cells (50 nM PMA for 24h) as described in Example 3. To stimulate NLRP1 inflammasome, cells were either mock-treated or primed with compounds at the indicated concentrations for 30 min, followed by treatment with 100 ng/mL LPS (Sigma) and 50 µg/ml MDP (Sigma) for 6 h at 37°C. In the case of NLRC4 inflammasome induction, cells were pretreated with the compounds for 30 min and then cells were stimulated for 3 h with Salmonella Typhimurium (MOI 5). To induce AIM2 inflammasome, cells were pretreated in the same conditions as before and transfected with poly(dA:dT) (200 µg/ml; Sigma) overnight using Lipofectamine 2000 (Invitrogen). Both IL-1β secretion and the release of IL-18 were monitored as previously described in Example 3.

ASC oligomerization = ASC oligomerization assay (DSS crosslinking, immunoblotting); assay type: cell-based, human; details: crosslinked pellets, LPS plus nigericin; MM01 10 µM, VX-765 5 µM
Method: PMA-differentiated THP-1 cells were seeded at 1x10^6 cells/ml in 6-well plates. Cells were treated with compounds for 30 min, primed with 100 ng/ml LPS for 3h and then stimulated with 10 µM nigericin for 30 min. The supernatants were removed, cells were rinsed in ice-cold PBS and lysed in NP-40 buffer (20 mM HEPES-KOH pH 7.5, 150 mM KCL, 1% NP-40 plus protease inhibitors). Lysates were centrifuged at 330 × g for 10 min at 4 °C. The pellets were washed and resuspended in PBS plus 2 mM disuccinimidyl suberate (DSS) and incubated at RT for 30 min with rotation. Samples were then centrifuged at 330 × g for 10 min at 4 °C. The supernatant was removed, and the cross-linked pellets were resuspended in sample buffer, boiled and analyzed by immunoblotting.

caspase-3 = molecular target: T1, caspase-3 (Homo sapiens, UniProt P42574); experiment: Caspase-3 activation assay; assay type: biochemical; details: recombinant caspase-3; MM01 5 µM (Figure 2A)
T1 sequence (P42574 29-277): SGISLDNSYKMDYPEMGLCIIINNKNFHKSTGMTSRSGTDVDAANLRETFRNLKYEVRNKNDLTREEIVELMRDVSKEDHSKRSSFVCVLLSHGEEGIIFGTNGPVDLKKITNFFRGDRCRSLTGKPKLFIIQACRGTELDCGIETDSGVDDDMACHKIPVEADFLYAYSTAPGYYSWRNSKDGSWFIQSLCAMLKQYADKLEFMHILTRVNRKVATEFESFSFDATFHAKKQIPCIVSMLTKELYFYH
Method: Compounds were incubated with caspase-3 (2 nM) in reaction buffer (100 mM NaCl, 50 mM Hepes pH 7.4, 10 mM DTT, 1 mM EDTA, 10% glycerol, 0.1% CHAPS) for 20 min at RT. Enzyme activity was spectrophotometrically monitored by adding Ac-DEVD-pNA (200 µM) substrate.

For `C=CCN1C(=O)/C(=C2/C(=O)Nc3ccccc32)SC1=S` [MM01], the IL-18 release (human NLRP1 inflammasome; THP-1, LPS 100 ng/ml + MDP 50 µg/ml) was “avoided”, the IL-1β release (human NLRP1 inflammasome; THP-1, LPS 100 ng/ml + MDP 50 µg/ml, MM01 1, 2.5 or 5 µM) was “avoided” and the procaspase-1 activation (human NLRP1 inflammasome; THP-1, LPS 100 ng/ml + MDP 50 µg/ml, pretreatment) was “avoided”. The pyroptotic cell death (human NLRP1 inflammasome; THP-1, LPS + MDP, LDH release) was “protected”, the ASC oligomerization (ASC oligomerization) was “inhibited” and the caspase-3 activity (caspase-3) was “do not act on”.
